Test results taken from article PMC3769509 (Nuclear medicine and biology, 2013).
“And” between values parts separate entries of the source, which are not always exact repeats. Identical values can stand only once.

Columns and labels:
[1] = PET studies: brain pharmacokinetics; details: baboon, iv
[2] = PET studies: biodistribution in peripheral organs; details: baboon, iv
[3] = PET studies: plasma analysis of unchanged radiotracer; details: baboon, iv; for fraction of radioactivity in plasma as unmetabolized compound: 30 min after administration
[4] = epilepsy patients, after intravenous infusions; cited from earlier work
Free fraction in plasma = assay type: in vitro ADME; details: baboon plasma
[5] = Ex vivo rat brain analysis after [11C]BA administration; assay type: in vivo; details: 5 min and 30 min after administration, data not shown
Lipophilicity at pH 7.4 = assay type: physicochemical
[6] = parent and/or labeled metabolites

| brain uptake of carbon-11 [1] | high uptake in vertebrae [2] | fraction of radioactivity in plasma as unmetabolized compound [3] | Structure (SMILES) | uptake in heart [2, 6] | % unbound in plasma (Free fraction in plasma) | Log D at pH 7.4 (Lipophilicity at pH 7.4) | also measured |
| --- | --- | --- | --- | --- | --- | --- | --- |
| < 0.006 %ID/cc |  |  | CCCC(=O)O [BA, n-butyric acid] |  |  |  |  |
| < 0.006 %ID/cc | not observed | 85% | O=C(O)CCCc1ccccc1 [PBA, 4-phenylbutyric acid] |  |  |  |  |
| < 0.006 %ID/cc and 0.004 %ID/cc | not observed | 98% | CCCC(CCC)C(=O)O [VPA, 2-propylpentanoic acid] | remarkably high |  |  | free VPA in plasma [4]: 9–15% |
|  |  |  | CCCC(CCC)[11C](=O)O [[^11C]VPA, [^11C]Valproic Acid] | exceptionally high | 26±0.3 (n=2) % | 0.26±0.03 (n=5) | intact fraction in plasma ([3]; over 90 min): > 90% |

| Structure (SMILES) | brain uptake of carbon-11 [1] | high uptake in vertebrae [2] | fraction of radioactivity in plasma as unmetabolized compound [3] | uptake in heart [2, 6] | % unbound in plasma (Free fraction in plasma) | Log D at pH 7.4 (Lipophilicity at pH 7.4) | also measured |
| --- | --- | --- | --- | --- | --- | --- | --- |
| CCC[11C](=O)O [[^11C]BA, [^11C]Butyric Acid] | ~ 0.006 %ID/cc | high uptake |  | very low | 82±0.4 (n=2) % |  | intact [11C]BA fraction in brain [5]: very low; uptake in pancreas [2, 6]: relatively high and high; uptake in spleen [2, 6]: relatively high and high |
| O=[11C](O)CCCc1ccccc1 [[^11C]PBA, [^11C]-4-Phenylbutyric Acid] | ~ 0.006 %ID/cc |  |  | moderate | 1.5±0.7 (n=6) % | −0.20±0.03 (n=6) | uptake in liver [2, 6]: high |
